Tested on: RELA
Assay: Total RELA protein level after bortezomib
Type: cell-based, human
Details: bortezomib treatment
Procedure: Data are presented as median+/−25%. Lower whisker is smallest observation greater than or equal to 25% quantile-1.5*interquantile range (IQR). Upper whisker represents the largest observation less than or equal to 75%+1.5*IQR. Amount of normalized RELA protein in the c) input or d) co-immunoprecipitated with SMARCA4 from 3 independent runs. […]
Cell lines were harvested with cold RIPA lysis buffer (50 mM Tris pH 8, 150 mM NaCl, 0.1% Triton X-100, 0.5% Sodium deoxycholate, 0.1% SDS) with protease inhibitors (Roche) on ice. […] Protein concentration was measured by Pierce BCA protein assay (Life Technologies). […]

## CC(C)C[C@H](NC(=O)[C@H](Cc1ccccc1)NC(=O)c1cnccn1)B(O)O [bortezomib]
  effect on total protein levels of RELA: did not significantly affect

Reference: patent US20260357349A1, “METHODS OF IDENTIFYING AND TREATING CANCER” (Agency for Science, Technology and Research, priority 2022, published 2026)
